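These data come from cells grown in 96-well plates and exposed to compound for 48 hours at five concentrations. GI50 marks 50% less growth.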 Activity calls are given as the source filed them. Cut-off read from the data, not from the text of the source: active = GI50 up to about 1.1 µM and inactive = higher.
Experiments:
Assay in all cases: growth of human tumour cells (NCI), 48 h
NCI-H23 = tested on: NCI-H23
SK-MEL-5 = tested on: SK-MEL-5
HCC 2998 = tested on: HCC 2998
OVCAR-4 = tested on: OVCAR-4
SK-MEL-28 = tested on: SK-MEL-28
SNB-19 = tested on: SNB-19
M14 = tested on: M14
ACHN = tested on: ACHN
UACC-257 = tested on: UACC-257
A549 = tested on: A549
HL-60 = tested on: HL-60
K562 = tested on: K562
UACC-62 = tested on: UACC-62
SF-539 = tested on: SF-539
OVCAR-8 = tested on: OVCAR-8
OVCAR-3 = tested on: OVCAR-3
SK-OV-3 = tested on: SK-OV-3
UO-31 = tested on: UO-31
A498 = tested on: A498

Measured: GI50

O=[N+]([O-])c1c(/C=N/c2ccccc2)oc(-c2ccc3c(c2)OCO3)c1-c1ccc2c(c1)OCO2
inactive: NCI-H23 > 100 µM | SK-MEL-5 > 100 µM | HCC 2998 > 100 µM | OVCAR-4 > 100 µM | SK-MEL-28 > 100 µM | SNB-19 > 100 µM | M14 > 100 µM | ACHN > 100 µM | UACC-257 > 100 µM | A549 > 100 µM | HL-60 > 100 µM | K562 > 100 µM | UACC-62 > 100 µM | SF-539 > 100 µM | OVCAR-8 > 100 µM | OVCAR-3 > 100 µM | SK-OV-3 44.9 µM | UO-31 9.29 µM

O=C1[C@@H](c2ccc(Cl)cc2)[C@H]2CC=C[C@H]2N1O
inactive: NCI-H23 > 100 µM | SK-MEL-5 > 100 µM | HCC 2998 52.8 µM | SK-MEL-28 > 100 µM | SNB-19 > 100 µM | M14 > 100 µM | UACC-257 > 100 µM | A549 > 100 µM | HL-60 > 100 µM | K562 > 100 µM | UACC-62 > 100 µM | SF-539 > 100 µM | OVCAR-8 > 100 µM | OVCAR-3 > 100 µM | SK-OV-3 > 100 µM | UO-31 89.7 µM

Cc1ccc(C2=C(c3ccccc3)C(O)(c3ccccc3)C(c3ccccc3)=C2c2ccc(C)cc2)cc1
inactive: NCI-H23 69.3 µM | SK-MEL-5 > 100 µM | HCC 2998 > 100 µM | SK-MEL-28 > 100 µM | SNB-19 > 100 µM | M14 83.8 µM | ACHN > 100 µM | A498 > 100 µM | UACC-257 > 100 µM | A549 > 100 µM | K562 > 100 µM | SF-539 > 100 µM | OVCAR-8 > 100 µM | SK-OV-3 > 100 µM | UO-31 78.7 µM

CN(C)P(=O)(Oc1occc1C(O)Cc1ccccc1)N(C)C (stereo not drawn)
inactive: NCI-H23 > 100 µM | SK-MEL-5 > 100 µM | HCC 2998 > 100 µM | OVCAR-4 > 100 µM | SK-MEL-28 > 100 µM | SNB-19 > 100 µM | M14 > 100 µM | ACHN > 100 µM | A498 > 100 µM | UACC-257 > 100 µM | A549 > 100 µM | SF-539 > 100 µM | OVCAR-8 > 100 µM | OVCAR-3 > 100 µM | SK-OV-3 > 100 µM | UO-31 > 100 µM

CC1(C)O[C@H]2[C@H](O)C[C@](O)(CO)C[C@H]2O1
inactive: NCI-H23 > 100 µM | SK-MEL-5 > 100 µM | OVCAR-4 > 100 µM | SK-MEL-28 > 100 µM | SNB-19 > 100 µM | M14 > 100 µM | ACHN > 100 µM | UACC-257 > 100 µM | A549 > 100 µM | K562 > 100 µM | UACC-62 > 100 µM | SF-539 > 100 µM | OVCAR-8 > 100 µM | OVCAR-3 > 100 µM | SK-OV-3 > 100 µM | UO-31 > 100 µM

c1ccc([B-]23Oc4ccccc4[NH+]2c2ccccc2O3)cc1 (stereo not drawn)
inactive: NCI-H23 > 100 µM | SK-MEL-5 > 100 µM | OVCAR-4 > 100 µM | SK-MEL-28 > 100 µM | SNB-19 > 100 µM | M14 > 100 µM | ACHN 75.7 µM | A498 > 100 µM | UACC-257 > 100 µM | A549 > 100 µM | HL-60 17.5 µM | K562 36.2 µM | UACC-62 > 100 µM | SF-539 > 100 µM | OVCAR-8 57.7 µM | OVCAR-3 56.6 µM | SK-OV-3 > 100 µM
